What all share (type): physicochemical
Data set [1] in a line: Absorption maximums of the closed and open forms and colour (Table 1, FIGS. 4 and 5). The note with it: for max closed form / max closed form (shoulder): closed (not excited) form; for max closed form: Transhade-150 test specimen, 500 ppm; for colour / max open form: open (excited) form. The text has this: For illustration of the aforedescribed bathochromic shift of the inventive compounds, compared against prior art, comparative tests have been carried out.
The first three compounds in Table 1--V1, V2 and Example 3--correspond to prior art (cf. WO 96/14596); the production of V1 and V2 is described there in details.
The production of the test specimens and the measuring methodology are described in details i the Examples.
FIGS. 4 and 5 show the absorption of the closed form or the absorption of the open form, compared against the absorption of the prior art compounds V1 and V2, expressed by plotting the extinction versus the wavelength. For a better recognition of the bathochromic shift a normalisation of the absorption intensity to roughly the same value has been made in the open form.
Absorption maximums of the open and closed forms, starting out
(§1) 500 ppm of the respective photochromic dye are dissolved in the employed monomer (TRANSHADE-150 from the company of Tokuyama; index of refraction 1.52) at room temperature while stirring. After the addition of an initiator of the alkyl peroxy-ester type (1.5% by weight) degassing is performed twice and subsequently the polymerisation is carried out in correspondence with the temperature programme recommended by the Tokuyama company. The glass casting moulds are coloured in black so that the entirety of the photochromic dyes may be integrated into the matrix in a non-excited state. After completion of the polymerisation process the test specimens are additionally tempered at 100° C. for 2 hours.

Data set [2] in a line: Photochromy observed in solution and in the glass. The procedure:
(ix) 1 g of the above reaction product is dissolved in 50 ml of absolute THF while stirring and cooled in an ice bath. Lithium aluminium hydride is added in small portions until the colour of the reaction solution does no longer brighten up. Stirring is then continued for another 10 min. and the solution is poured into water, acidified with conc. hydrochloric acid until the phases are clear whereupon the organic phase is isolated. After extraction with water, drying over sodium sulphate and removal of the solvent by rotation a brownish viscous residue remains which crystallises when methanol is added. The suspension is stirred at room temperature for some minutes more and then the precipitate is exhausted. The slightly brownish solid (0.8 g) was identified as 6-methoxy-3-(4-methoxy phenyl)-3-phenyl-13-hydroxy-benz[p]indeno[2,1-f]naphtho[1,2-b]pyrane by means of the NMR spectrum.

A short description of data set [3]: Brightening rate and brightening kinetics in the polymer Transhade-150. The note with it: for Δ(10 min, 23° C.) relative brightening: within 10 min at 23° C. As for the experimental part:
For a further illustration of the foregoing explanations comparative tests have been carried out again on the inventive compounds and on known compounds. The compounds used are derived from the compound of the following general formula: [drawing 5]
The brightening rate and the brightening kinetics were measured for differently substituted systems in the polymer Transhade-150 of the company of Tokuyama at different temperatures. The results obtained are summarised in the following, with the following terms being used:
Δ=relative brightening within 10 minutes at 23° C.
=100% (.tau.10 min-.tau.s)/(.tau.0-.tau.s)
.tau.s is the transmission achieved after 15 min of obscuration
.tau.0 is the transmission in the fully brightened condition
.tau.10 min is the transmission after 10 min brightening in the dark
T1/2 =time elapsing up to a brightening level corresponding to half the darkening level (half-period)
The brightening kinetics of differently substituted systems was determined, with R1, R2 and R3 representing either the methoxy group or hydrogen; the measurements were performed at 23° C. and 40° C.
Production of the test specimens:
as §1
Plotting of the kinetics graphs:
For the determination of the brightening rates the test specimens so produced were measured in a common kinetics test bench (irradiation with 50 klux in compliance with EN 1836, item 6.1.3.1.1). The exposure time was 15 minutes in each case, brightening takes place in the dark. During exposure and brightening the transmission graph--evaluated by the sensitivity to brightness of the human eye, V λ--is recorded. The glass temperature is controlled via a cuvette designed for being controlled by means of a thermostat.

Where [4] appears, read: Table 3: R1 = OCH3, R2 = R3 = H.
[5] abbreviates: Table 4: R1 = R3 = OCH3, R2 = H.

On to `COc1ccc(C2(c3ccccc3)C=Cc3c4c(c5ccc(OC)cc5c3O2)-c2ccc3ccccc3c2C4O)cc1` (stereo not shown) [Example 1, 6-methoxy-3-(4-methoxyphenyl)-3-phenyl-13-hydroxy-benz[p]indeno[2,1-f]naphtho[1,2-b]pyrane], for which, in data set [1], the max closed form was determined as 385 nm, the colour entry was “green” and the max open form amounted to 600 nm. Also, the photochromy colour result in data set [2] is given as “green photochromy”.

Take `COc1ccc(C2(c3ccccc3)C=Cc3c4c(c5ccc(OC)cc5c3O2)-c2ccccc2C4O)cc1` (stereo not shown) [Example 3, 6-methoxy-3-(4-methoxyphenyl)-3-phenyl-13-hydroxy-indeno[2,1-f]-naphtho[1,2-b]pyrane]: in data set [1], the “max closed form (shoulder)” value worked out at 375 nm, the max closed form worked out at 360 nm, the colour result is “blue” and the max open form is on record as 575 nm.

For the compound `CCC1(O)c2ccccc2-c2c1c1c(c3cc(OC)ccc23)OC(c2ccccc2)(c2ccc(OC)cc2)C=C1` (stereo not shown) [Example 4, 6-methoxy-3-(4-methoxyphenyl)-3-phenyl-13-ethyl-13-hydroxy-indeno[2,1-f]naphtho[1,2-b]pyrane], in data set [3] (setting [4]), the “T1/2 (40° C.)” value is 7.0 min and the “Δ(10 min, 23° C.) relative brightening” value came to 25%.

On to `COc1ccc(C2(c3ccccc3)C=Cc3c4c(c5ccc(OC)cc5c3O2)-c2ccccc2C4(O)c2ccccc2)cc1` (stereo not shown) [Example 5, 13-hydroxy-6-methoxy-3-(4-methoxyphenyl)-3,13-diphenyl indeno[2,1-f]-naphtho[1,2-b]pyrane], for which, in data set [3] (setting [4]), the “T1/2 (40° C.)” value is 7.0 min and the “Δ(10 min, 23° C.) relative brightening” value came out at 22%.

With `COc1ccc(C2(c3ccccc3)C=Cc3c4c(c5ccc(OC)cc5c3O2)-c2ccccc2C4(O)c2cccc3ccccc23)cc1` (stereo not shown) [Example 6, 6-methoxy-3-(4-methoxyphenyl)-3-phenyl-13-(1-naphthyl)-13-hydroxy-indeno [2,1-f]-naphtho[1,2-b]pyrane], in data set [3] (setting [4]), the “T1/2 (40° C.)” value is listed as 5.0 min and the “Δ(10 min, 23° C.) relative brightening” value is 29%.

On to `COc1ccc(C2(c3ccccc3)C=Cc3c4c(c5ccc(OC)cc5c3O2)-c2ccccc2C4(O)c2ccccc2C)cc1` (stereo not shown) [Example 7], for which, in data set [3] (setting [4]), the “T1/2 (40° C.)” value is listed as 4.2 min and the “Δ(10 min, 23° C.) relative brightening” value is listed as 34%.

With `COc1ccc(C2(c3ccccc3)C=Cc3c4c(c5ccc(OC)cc5c3O2)-c2ccccc2C4(O)c2cc(C)ccc2C)cc1` (stereo not shown) [Example 8, 6-methoxy-3-(4-methoxyphenyl)-3-phenyl-13-(2,5-dimethylphenyl)-13-hydroxy-indeno[2,1-f]naphtho[1,2-b]pyrane], in data set [3] (setting [4]), the “T1/2 (40° C.)” value is listed as 4.0 min and the “Δ(10 min, 23° C.) relative brightening” value is recorded as 36%.

`COc1ccc(C2(c3ccccc3)C=Cc3c4c(c5ccc(OC)cc5c3O2)-c2ccccc2C4(O)c2sccc2C)cc1` (stereo not shown) [Example 9, 6-methoxy-3-(4-methoxyphenyl)-3-phenyl-13-(3-methyl-2-thienyl)-13-hydroxy-indeno[2,1-f]naphtho[1,2-b]pyrane]: in data set [3] (setting [4]), the “T1/2 (40° C.)” value amounted to 3.4 min and the “Δ(10 min, 23° C.) relative brightening” value amounted to 38%.

As for `COc1ccc(C2(c3ccc(OC)cc3)C=Cc3c4c(c5ccc(C)cc5c3O2)-c2ccc(C)cc2C4O)cc1` (stereo not shown) [Example V2], in data set [1], the “max closed form (shoulder)” value is on record as 375 nm, the max closed form came to 350 nm, the colour result is reported as “blue-violet” and the max open form came to 570 nm.

Regarding `COc1ccc(C2(c3ccc(OC)cc3)C=Cc3c4c(c5ccc(OC)cc5c3O2)-c2ccccc2C4(O)c2ccccc2)cc1` (stereo not shown) [Example V3], in data set [3] (setting [5]), the “T1/2 (40° C.)” value was 2.5 min and the “Δ(10 min, 23° C.) relative brightening” value is 43%.

Consider `COc1ccc(C2(c3ccc(OC)cc3)C=Cc3c4c(c5ccc(OC)cc5c3O2)-c2ccccc2C4(O)c2cccc3ccccc23)cc1` (stereo not shown) [Example V4], for which, in data set [3] (setting [5]), the “T1/2 (40° C.)” value is listed as 2.5 min and the “Δ(10 min, 23° C.) relative brightening” value is 44%.

Source of the values: patent publication US6146554A, “Photochromic naphtopyrane colorants, method for the production and use thereof, photochromic object” (Optische Werke G. Rodenstock, priority 1997, dated 2000).
